Test results from US10040781B2, “Tank-binding kinase inhibitor compounds” (Gilead Sciences, Inc., priority 2014, dated 2018).

Experiments:
hJAK2 = hJAK2 (Homo sapiens (Human), UniProt O60674); test: hJAK2 LANCE TR-FRET enzymatic assay; type: biochemical; conditions: read-out: JAK2 IC50
IKKε = IKKε (Homo sapiens (Human), UniProt Q14164); test: IKKε TR-FRET enzymatic assay; type: biochemical; conditions: read-out: IKKe IC50
TBK1 = TBK1 (Homo sapiens (Human), UniProt Q9UHD2); test: TBK1 TR-FRET enzymatic assay;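 note: phosphorylation of a biotinylated Ser/Thr peptide by purified full-length recombinant TBK1, read by TR-FRET after 240 min at 25 °C, IC50 is the geometric mean of at least four runs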
Sequence of TBK1 (Q9UHD2 whole entry): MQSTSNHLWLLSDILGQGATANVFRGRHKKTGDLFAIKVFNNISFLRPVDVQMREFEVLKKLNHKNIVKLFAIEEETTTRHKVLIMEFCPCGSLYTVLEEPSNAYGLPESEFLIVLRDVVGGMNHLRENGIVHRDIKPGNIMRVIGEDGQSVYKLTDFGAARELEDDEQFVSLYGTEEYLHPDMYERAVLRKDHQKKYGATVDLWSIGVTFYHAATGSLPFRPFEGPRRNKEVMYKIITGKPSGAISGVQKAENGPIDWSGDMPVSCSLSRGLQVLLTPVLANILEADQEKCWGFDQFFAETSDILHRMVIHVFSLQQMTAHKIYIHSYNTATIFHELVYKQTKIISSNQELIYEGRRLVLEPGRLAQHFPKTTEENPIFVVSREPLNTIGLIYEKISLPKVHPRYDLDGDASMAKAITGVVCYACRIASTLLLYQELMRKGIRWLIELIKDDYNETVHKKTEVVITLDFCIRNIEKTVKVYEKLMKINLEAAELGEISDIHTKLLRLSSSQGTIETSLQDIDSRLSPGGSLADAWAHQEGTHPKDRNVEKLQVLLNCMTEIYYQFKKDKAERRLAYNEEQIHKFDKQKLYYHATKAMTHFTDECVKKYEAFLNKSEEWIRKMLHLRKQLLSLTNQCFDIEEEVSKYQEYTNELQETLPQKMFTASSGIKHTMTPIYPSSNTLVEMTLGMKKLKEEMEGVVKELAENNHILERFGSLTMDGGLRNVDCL

Sequence of IKKε (Q14164 whole entry): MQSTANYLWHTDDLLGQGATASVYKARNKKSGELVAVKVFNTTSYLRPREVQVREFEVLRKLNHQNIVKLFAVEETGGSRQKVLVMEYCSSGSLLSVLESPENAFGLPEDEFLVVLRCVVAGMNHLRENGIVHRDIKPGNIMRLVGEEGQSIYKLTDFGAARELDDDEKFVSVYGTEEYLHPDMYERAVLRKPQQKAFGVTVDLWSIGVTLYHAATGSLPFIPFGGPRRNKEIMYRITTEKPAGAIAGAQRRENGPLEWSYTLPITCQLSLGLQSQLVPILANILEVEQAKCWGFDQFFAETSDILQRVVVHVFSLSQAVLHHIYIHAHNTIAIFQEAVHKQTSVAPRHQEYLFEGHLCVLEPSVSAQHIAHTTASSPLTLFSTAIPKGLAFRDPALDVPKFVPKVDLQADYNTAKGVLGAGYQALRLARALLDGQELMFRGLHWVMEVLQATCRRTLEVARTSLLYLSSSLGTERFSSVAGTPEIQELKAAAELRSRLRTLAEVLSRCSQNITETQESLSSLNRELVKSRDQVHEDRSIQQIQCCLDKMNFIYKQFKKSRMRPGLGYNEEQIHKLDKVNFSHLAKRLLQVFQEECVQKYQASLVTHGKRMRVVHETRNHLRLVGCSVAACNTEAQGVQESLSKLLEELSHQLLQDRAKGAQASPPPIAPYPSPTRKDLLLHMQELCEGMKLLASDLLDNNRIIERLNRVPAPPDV
Sequence of hJAK2 (O60674 whole entry): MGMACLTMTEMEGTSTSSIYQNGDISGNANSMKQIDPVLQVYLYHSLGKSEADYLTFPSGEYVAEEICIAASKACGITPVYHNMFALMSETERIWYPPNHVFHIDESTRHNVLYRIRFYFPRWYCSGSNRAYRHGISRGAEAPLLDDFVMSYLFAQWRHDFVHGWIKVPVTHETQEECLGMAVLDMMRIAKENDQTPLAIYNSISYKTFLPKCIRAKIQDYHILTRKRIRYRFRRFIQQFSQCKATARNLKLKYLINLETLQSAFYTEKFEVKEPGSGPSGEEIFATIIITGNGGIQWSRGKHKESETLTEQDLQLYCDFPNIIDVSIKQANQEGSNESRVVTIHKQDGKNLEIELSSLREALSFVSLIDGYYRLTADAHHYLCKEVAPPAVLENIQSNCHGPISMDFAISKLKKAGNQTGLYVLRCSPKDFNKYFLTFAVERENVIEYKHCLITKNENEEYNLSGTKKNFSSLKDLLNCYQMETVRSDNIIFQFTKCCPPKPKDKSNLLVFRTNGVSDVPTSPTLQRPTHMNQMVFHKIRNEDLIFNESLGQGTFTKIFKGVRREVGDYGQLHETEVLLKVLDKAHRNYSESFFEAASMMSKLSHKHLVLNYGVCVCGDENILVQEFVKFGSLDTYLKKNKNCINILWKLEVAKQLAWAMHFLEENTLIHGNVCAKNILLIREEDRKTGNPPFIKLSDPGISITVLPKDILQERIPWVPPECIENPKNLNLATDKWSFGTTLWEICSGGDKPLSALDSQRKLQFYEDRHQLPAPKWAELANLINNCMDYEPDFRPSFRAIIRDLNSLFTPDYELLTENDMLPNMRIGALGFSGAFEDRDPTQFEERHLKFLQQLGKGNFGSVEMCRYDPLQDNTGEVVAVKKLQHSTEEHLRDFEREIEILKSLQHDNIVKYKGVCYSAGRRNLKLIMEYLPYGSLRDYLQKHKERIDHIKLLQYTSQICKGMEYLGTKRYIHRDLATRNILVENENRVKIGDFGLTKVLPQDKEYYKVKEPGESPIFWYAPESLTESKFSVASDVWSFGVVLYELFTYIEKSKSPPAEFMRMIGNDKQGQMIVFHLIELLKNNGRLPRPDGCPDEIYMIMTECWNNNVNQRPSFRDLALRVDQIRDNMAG

IC50 (hJAK2) | IC50 (IKKε) | IC50 (TBK1) | SMILES
995 nM | 37 nM | 17 nM | C[C@H](O)C(=O)N1CCCC(Oc2ccc(-c3ncnc(Nc4ccc(N5CCN(C6COC6)CC5)cc4)n3)cc2C#N)CC1 (stereo partly drawn) [Example 359, 2-((1-((S)-2-hydroxypropanoyl)azepan-4-yl)oxy)-5-(4-((4-(4-(oxetan-3-yl)piperazin-1-yl)phenyl)amino)-1,3,5-triazin-2-yl)benzonitrile]
185 nM | 2 nM | 3 nM | CCn1cc(Nc2ncnc(-c3ccc(O[C@H]4CCN(C(=O)CO)C[C@H]4F)c(C#N)c3)n2)cn1 [Example 360, 5-(4-((1-ethyl-1H-pyrazol-4-yl)amino)-1,3,5-triazin-2-yl)-2-(((3R,4S)-3-fluoro-1-(2-hydroxyacetyl)piperidin-4-yl)oxy)benzonitrile]
317 nM | 1 nM | 2 nM | N#Cc1cc(-c2ncnc(Nc3cnn(CC(F)F)c3)n2)ccc1O[C@H]1CCN(C(=O)CO)C[C@H]1F [Example 361, 5-(4-((1-(2,2-difluoroethyl)-1H-pyrazol-4-yl)amino)-1,3,5-triazin-2-yl)-2-(((3R,4S)-3-fluoro-1-(2-hydroxyacetyl)piperidin-4-yl)oxy)benzonitrile]
665 nM | 1 nM | 3 nM | C[C@H](O)C(=O)N1CC[C@H](Oc2ccc(-c3ncnc(Nc4ccc(N5CCCOCC5)cc4)n3)cc2C#N)[C@H](F)C1 [Example 363, 5-(4-((4-(1,4-oxazepan-4-yl)phenyl)amino)-1,3,5-triazin-2-yl)-2-(((3R,4S)-3-fluoro-1-((S)-2-hydroxypropanoyl)piperidin-4-yl)oxy)benzonitrile]
634 nM | 4 nM | 5 nM | C[C@H](O)C(=O)N1CC[C@H](Oc2ccc(-c3ncnc(Nc4ccc(N5CC6(COC6)C5)cc4)n3)cc2C#N)[C@H](F)C1 [Example 364, 5-(4-((4-(2-oxa-6-azaspiro[3.3]heptan-6-yl)phenyl)amino)-1,3,5-triazin-2-yl)-2-(((3R,4S)-3-fluoro-1-((S)-2-hydroxypropanoyl)piperidin-4-yl)oxy)benzonitrile]
474 nM | 2 nM | 4 nM | C[C@H](O)C(=O)N1CC[C@H](Oc2ccc(-c3ncnc(Nc4ccc(N5CCC6(CC5)COC6)cc4)n3)cc2C#N)[C@H](F)C1 [Example 365, 5-(4-((4-(2-oxa-7-azaspiro[3.5]nonan-7-yl)phenyl)amino)-1,3,5-triazin-2-yl)-2-(((3R,4S)-3-fluoro-1-((S)-2-hydroxypropanoyl)piperidin-4-yl)oxy)benzonitrile]
≥ 1000 nM | 2 nM | 3 nM | C[C@H](O)C(=O)N1CC[C@H](Oc2ccc(-c3ncnc(Nc4ccc(N5CCN(C6COC6)CC5)c(F)c4)n3)cc2C#N)[C@H](F)C1 [Example 367, 2-(((3R,4S)-3-fluoro-1-((S)-2-hydroxypropanoyl)piperidin-4-yl)oxy)-5-(4-((3-fluoro-4-(4-(oxetan-3-yl)piperazin-1-yl)phenyl)amino)-1,3,5-triazin-2-yl)benzonitrile]
225 nM | 2 nM | 3 nM | N#Cc1cc(-c2ncnc(Nc3ccc(N4CCN(C5COC5)CC4)c(C(F)(F)F)c3)n2)ccc1O[C@H]1CCN(C(=O)CO)C[C@H]1F [Example 368, 2-(((3R,4S)-3-fluoro-1-(2-hydroxyacetyl)piperidin-4-yl)oxy)-5-(4-((4-(4-(oxetan-3-yl)piperazin-1-yl)-3-(trifluoromethyl)phenyl)amino)-1,3,5-triazin-2-yl)benzonitrile]
875 nM | 8 nM | 5 nM | C[C@H](O)C(=O)N1CC[C@H](Oc2ccc(-c3ncnc(Nc4ccc(N5CCN(C6COC6)CC5)c(C(F)(F)F)c4)n3)cc2C#N)[C@H](F)C1 [Example 370, 2-(((3R,4S)-3-fluoro-1-((S)-2-hydroxypropanoyl)piperidin-4-yl)oxy)-5-(4-((4-(4-(oxetan-3-yl)piperazin-1-yl)-3-(trifluoromethyl)phenyl)amino)-1,3,5-triazin-2-yl)benzonitrile]
989 nM | 1 nM | 2 nM | C[C@H](O)C(=O)N1CC[C@H](Oc2ccc(-c3ncnc(Nc4ccc(N5CCN(C6COC6)CC5)c(C(F)F)c4)n3)cc2C#N)[C@H](F)C1 [Example 371, 5-(4-((3-(difluoromethyl)-4-(4-(oxetan-3-yl)piperazin-1-yl)phenyl)amino)-1,3,5-triazin-2-yl)-2-(((3R,4S)-3-fluoro-1-((S)-2-hydroxypropanoyl)piperidin-4-yl)oxy)benzonitrile]
305 nM | 5 nM | 4 nM | N#Cc1cc(-c2ncnc(Nc3ccc(N4CCN(C5COC5)CC4)c(F)c3)n2)ccc1O[C@H]1CCN(C(=O)[C@@H]2CCC(=O)N2)C[C@H]1F [Example 372, 2-(((3R,4S)-3-fluoro-1-((S)-5-oxopyrrolidine-2-carbonyl)piperidin-4-yl)oxy)-5-(4-((3-fluoro-4-(4-(oxetan-3-yl)piperazin-1-yl)phenyl)amino)-1,3,5-triazin-2-yl)benzonitrile]
146 nM | 1 nM | 2 nM | N#Cc1cc(-c2ncnc(Nc3ccc(N4CCN(C5COC5)CC4)c(F)c3)n2)ccc1O[C@H]1CCN(C(=O)c2cnn[nH]2)C[C@H]1F [Example 373, 2-(((3R,4S)-3-fluoro-1-(1H-1,2,3-triazole-5-carbonyl)piperidin-4-yl)oxy)-5-(4-((3-fluoro-4-(4-(oxetan-3-yl)piperazin-1-yl)phenyl)amino)-1,3,5-triazin-2-yl)benzonitrile]
≥ 1000 nM | ≥ 1000 nM | 1000 nM | N#Cc1cc(-c2ncnc(Nc3ccc(N4CCN(C5COC5)CC4)cc3F)n2)ccc1O[C@H]1CCN(C(=O)[C@@H]2CCC(=O)N2)C[C@H]1F [Example 374, 2-(((3R,4S)-3-fluoro-1-((S)-5-oxopyrrolidine-2-carbonyl)piperidin-4-yl)oxy)-5-(4-((2-fluoro-4-(4-(oxetan-3-yl)piperazin-1-yl)phenyl)amino)-1,3,5-triazin-2-yl)benzonitrile]
≥ 1000 nM | ≥ 1000 nM | 1000 nM | C[C@H](O)C(=O)N1CC[C@H](Oc2ccc(-c3ncnc(Nc4ccc(N5CCN(C6COC6)CC5)cc4F)n3)cc2C#N)[C@H](F)C1 [Example 375, 2-(((3R,4S)-3-fluoro-1-((S)-2-hydroxypropanoyl)piperidin-4-yl)oxy)-5-(4-((2-fluoro-4-(4-(oxetan-3-yl)piperazin-1-yl)phenyl)amino)-1,3,5-triazin-2-yl)benzonitrile]
127 nM | 3 nM | 5 nM | N#Cc1cc(-c2ncnc(Nc3ccc(N4CCN(C5COC5)CC4)cc3)n2)ccc1O[C@H]1CCN(C(=O)c2cn(CCO)nn2)C[C@H]1F [Example 376]
≥ 1000 nM | 3 nM | 5 nM | C[C@H](O)C(=O)N1CC[C@H](Oc2ccc(-c3ncnc(Nc4ccc(N5CCN(C6COC6)CC5)nc4)n3)cc2C#N)[C@H](F)C1 [Example 379, 2-(((3R,4S)-3-fluoro-1-((S)-2-hydroxypropanoyl)piperidin-4-yl)oxy)-5-(4-((6-(4-(oxetan-3-yl)piperazin-1-yl)pyridin-3-yl)amino)-1,3,5-triazin-2-yl)benzonitrile]
891 nM | 8 nM | 6 nM | CCOC(=O)c1cccc(Nc2ncnc(-c3ccc(O[C@H]4CCN(C(=O)[C@H](C)O)C[C@H]4F)c(C#N)c3)n2)c1 [Example 380, Ethyl 3-((4-(3-cyano-4-(((3R,4S)-3-fluoro-1-((S)-2-hydroxypropanoyl)piperidin-4-yl)oxy)phenyl)-1,3,5-triazin-2-yl)amino)benzoate]
≥ 1000 nM | 3 nM | 3 nM | C[C@H](O)C(=O)N1CC[C@H](Oc2ccc(-c3ncnc(Nc4ccc(C(C)(C)O)nc4)n3)cc2C#N)[C@H](F)C1 [Example 382, 2-(((3R,4S)-3-fluoro-1-((S)-2-hydroxypropanoyl)piperidin-4-yl)oxy)-5-(4-((6-(2-hydroxypropan-2-yl)pyridin-3-yl)amino)-1,3,5-triazin-2-yl)benzonitrile]
568 nM | 1 nM | 2 nM | C[C@H](O)C(=O)N1CC[C@H](Oc2ccc(-c3ncnc(Nc4ccc(N5CCOC[C@H]5CO)cc4)n3)cc2C#N)[C@H](F)C1 [Example 383, 2-(((3R,4S)-3-fluoro-1-((S)-2-hydroxypropanoyl)piperidin-4-yl)oxy)-5-(4-((4-((R)-3-(hydroxymethyl)morpholino)phenyl)amino)-1,3,5-triazin-2-yl)benzonitrile]
189 nM | 1 nM | 2 nM | N#Cc1cc(-c2ncnc(Nc3ccc(N4CCOC[C@H]4CO)cc3)n2)ccc1O[C@H]1CCN(C(=O)CO)C[C@H]1F [Example 384, 2-(((3R,4S)-3-fluoro-1-(2-hydroxyacetyl)piperidin-4-yl)oxy)-5-(4-((4-((R)-3-(hydroxymethyl)morpholino)phenyl)amino)-1,3,5-triazin-2-yl)benzonitrile]
888 nM | 3 nM | 2 nM | C[C@H](O)C(=O)N1CC[C@H](Oc2ccc(-c3ncnc(Nc4ccc5c(c4)NC(=O)C5(C)C)n3)cc2C#N)[C@H](F)C1 [Example 385, 5-(4-((3,3-dimethyl-2-oxoindolin-6-yl)amino)-1,3,5-triazin-2-yl)-2-(((3R,4S)-3-fluoro-1-((8)-2-hydroxypropanoyl)piperidin-4-yl)oxy)benzonitrile]

SMILES | IC50 (hJAK2) | IC50 (IKKε) | IC50 (TBK1)
C[C@H](O)C(=O)N1CC[C@H](Oc2ccc(-c3ncnc(Nc4ccnc(C(C)(C)O)c4)n3)cc2C#N)[C@H](F)C1 [Example 386, 2-(((3R,4S)-3-fluoro-1-((S)-2-hydroxypropanoyl)piperidin-4-yl)oxy)-5-(4-((2-(2-hydroxypropan-2-yl)pyridin-4-yl)amino)-1,3,5-triazin-2-yl)benzonitrile] | ≥ 1000 nM | 6 nM | 4 nM
